Experimental data published in patent US20260317332A1, “BICYCLIC HETEROCYCLE COMPOUNDS FOR THE TREATMENT OF CANCER” (Hoffmann-La Roche Inc., priority 2023, published 2026).

Key:
[1] = target: T1, CD73 (Homo sapiens, UniProt P21589); assay: Human CD73 Biochemical Assay; conditions: 0.05 nM recombinant CD73; AMP 5.56 μM final; 10 min at room temperature; LC/MS adenosine readout; read-out: Enzymatic IC50 against human CD73
T1 sequence (P21589 27-574): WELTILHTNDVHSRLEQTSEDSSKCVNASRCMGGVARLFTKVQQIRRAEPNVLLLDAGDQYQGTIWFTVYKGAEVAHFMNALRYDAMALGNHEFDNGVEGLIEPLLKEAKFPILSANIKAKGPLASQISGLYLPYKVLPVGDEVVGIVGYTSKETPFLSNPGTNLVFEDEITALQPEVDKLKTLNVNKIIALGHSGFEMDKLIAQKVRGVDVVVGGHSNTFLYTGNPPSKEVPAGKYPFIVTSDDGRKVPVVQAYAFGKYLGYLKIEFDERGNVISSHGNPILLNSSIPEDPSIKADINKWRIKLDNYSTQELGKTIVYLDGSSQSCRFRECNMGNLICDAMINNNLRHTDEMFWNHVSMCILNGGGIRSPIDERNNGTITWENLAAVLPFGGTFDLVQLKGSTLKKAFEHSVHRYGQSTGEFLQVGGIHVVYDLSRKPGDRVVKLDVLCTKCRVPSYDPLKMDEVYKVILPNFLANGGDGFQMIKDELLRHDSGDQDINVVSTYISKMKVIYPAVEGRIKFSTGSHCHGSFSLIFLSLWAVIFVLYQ
Protocol: The purpose of this assay is to identify and characterize inhibitors of human CD73 enzymatic activity. Compound serial dilution (1:3) was prepared with Echo 555 liquid handler (Labcyte) into the corresponding wells of a 384-well plate. 10 μL of enzyme working solution (containing 0.05 nM recombinant CD73 protein, 10 mM Tris pH 7.5, 100 mM NaCl, 0.01% BSA, 0.2 mM Octyl glucoside and 1 mM NaH2PO4) was added to the assay plate and incubated with compounds for 15 minutes at room temperature. After adding 15 μL of AMP working solution (Containing 10 mM Tris pH 7.5, 100 mM NaCl, 0.01% BSA, 0.2 mM Octyl glucoside, with 5.56 μM of AMP final concentration) and incubate for 10 min at room temperature. Stop the reaction by adding 75 μL of stop solution (5% TCA in H2O containing 250 nM 13C5-adenosine) to each well for 10 min incubation. After centrifugation, 75 μL of the mixture was transferred to a new 384-well plate for LC/MS analysis.
Samples from the 384-well plates, were loaded onto an autosampler deck, then injected with ADDA-LC-MS/MS. The aqueous mobile phase is 0.1% formic acid in water. The organic mobile phase is 0.1% formic acid in acetonitrile. Flow rate is maintained at 0.8 mL/minute using Shimadzu pumps. The column is ACE 5 Phenyl, 50×2.1 mm. The analysis was performed on a SCIEX triple quadrupole mass spectrometer operating in positive ion mode. The effluent from the HPLC column was directly introduced into the electrospray ionization (ESI). Multiple reaction monitoring (MRM) is used to determine analyte and internal standard (IS) responses. The MRM for adenosine is 268.1/136.1, for 13C5-Adenosine (IS) is 273.2/136.2. The data is calculated using the peak area ratio (PAR) semi-quantitative method.

[2] = tested on: CD4+ T cells; assay: T Cell Proliferation Assay: CD4+ T cell proliferation; format: cell-based; conditions: Homo sapiens, high AMP condition (200 μM AMP, 5 μM EHNA), CD3/CD28 beads, 72 hours, read-out: CD4+ T cell proliferation EC50 (rescue of proliferation)
Protocol: (§1) The purpose of this assay is to characterize the potency of inhibitors of CD73 in rescuing adenosine-mediated inhibition of T cell proliferation. CD4+ or CD8+ T cells were isolated from peripheral blood mononuclear cells (PBMCs, HemaCare) by immunomagnetic negative selection using EasySep™ Isolation Kit (STEMCELL Technologies) following the supplier's protocol. Pan T cells were pelleted by centrifugation at 300 gravitational force (g) for 5 minutes at room temperature and re-suspended in PBS. CellTrace™ Violet staining solution (Invitrogen) was added at 1:5,000 and incubated at 37° C. for 20 minutes, protected from light. Complete culture medium [RPMI-1640 (Gibco), 10% Fetal Bovine Serum (Gibco), 2 mM GlutaMAX (Gibco) and 1 mM Sodium Pyruvate (Gibco), 100 U/mL Penicillin-Streptomycin (Gibco) and MEM non-essential amino acids (NEAA) cell culture supplement (1:100, Gibco)] was then added, mixed, and incubated at 37° C. for 5 minutes. Cells were then pelleted by centrifugation at 300 g for 5 minutes at room temperature and re-suspended in fresh, pre-warmed complete culture medium. 50 μL of cells were seeded per well in 96 well u-bottom plates. 50 μL of CD3/CD28 beads-containing medium and 50 μL of media containing compounds were added into cells. 50 μL of media containing AMP and EHNA hydrochloride (Sigma-Aldrich) was added into cells at 200 μM and 5 μM final concentration, respectively. Cells were incubated for 72 hours at 37° C. in a 5% CO2 incubator. 200 μL of PBS was then added to each well and cells were centrifuged at 300 g, 4° C. for 10 minutes. The supernatant was discarded. 50 μL of Human TruStain FcX™ (Fc Receptor Blocking Solution, BioLegend) diluted 1:100 in PBS was added to each well, mixed gently and incubated for 20 minutes at 4° C. 50 μL of staining solution (BioLegend) was added to each well, mixed gently and incubated at 4° C. for 30 minutes. Cells were centrifuged at 300 g, 4° C. for 10 minutes and the supernatant was discarded. The cell pellets were washed with 250 μL of cell staining buffer and centrifuged at 300 g, 4° C. for 10 minutes. The supernatant was discarded and cells were re-suspended in 60 μL of cell staining buffer and analyzed on a flow cytometer.

[3] = tested on: CD8+ T cells; assay: T Cell Proliferation Assay: CD8+ T cell proliferation; format: cell-based; conditions: high AMP condition (200 μM AMP, 5 μM EHNA), CD3/CD28 beads, 72 hours, read-out: CD8+ T cell proliferation EC50 (rescue of proliferation)
Protocol: as §1

[4] = target: T1, CD73; assay: CD73 Cellular Assay; format: cell-based; parameters: 40 μL of MDA-MB-231 cells (ATCC, HTB-26, breast cancer); host or cells: MDA-MB-231; conditions: MDA-MB-231 cells; 200 μM AMP working solution; 45 min at 37° C.; malachite readout; read-out: Cellular IC50 against CD73
Protocol: Compound serial dilution (1:3) was prepared with Echo 555 liquid handler (Labcyte) into the corresponding wells of a 384-well plate. 40 μL of MDA-MB-231 cells (ATCC, HTB-26, breast cancer, final concentration at 20,000 cells/mL) suspended in assay buffer (20 mM HEPES pH 7.4, 137 mM NaCl, 5.4 mM KCl, 1.3 mM CaCl2, 4.2 mM NaHCO3, 1 mg/mL glucose) were added into the corresponding wells of the plate. After incubating with compounds for 30 minutes, 40 μL of AMP working solution (200 μM AMP in assay buffer) was added into each well in the assay plate. The assay plate was then incubated in a 5% CO2 incubator (Thermo Fisher Scientific) at 37° C. for 45 min. After the reaction was completed, 50 μL of the supernatants was collected and transferred into a new 384 well plate. 10 μL of Malachite A was added to each well in the assay plate and incubated for 10 minutes. 10 μL of Malachite B was then added to each corresponding well of the plate and incubated for 30 minutes. Finally the absorbance value was read on the Envision plate reader at […]. Calculation percentage inhibition by using equation {% inhibition=100×[1−(X−MIN)/(MAX−MIN)]} where X equals to the well signal, Max equals signal of neutral control and MIN equals signal of inhibitor control.

Compound | IC50 [1] | IC50 [4] | EC50 [2] | EC50 [3]
Cn1nc(O[C@H](c2cc(OCC(F)(F)F)ncn2)C(F)F)c2cc(-c3c[nH]c(=O)[nH]c3=O)nnc21 (single isomer, unassigned) [Example 35A] | 0.06 nM | 0.59 nM | 0.3 nM | 0.32 nM
Cn1nc(O[C@H](c2ccnc(OCC(F)(F)F)c2)C(F)F)c2cc(-c3c[nH]c(=O)[nH]c3=O)nnc21 [Example 10, 5-[3-[(1R)-2,2-difluoro-1-[2-(2,2,2-trifluoroethoxy)-4-pyridyl]ethoxy]-1-methyl-pyrazolo[3,4-c]pyridazin-5-yl]-1H-pyrimidine-2,4-dione] | 0.06 nM | 0.55 nM | 0.14 nM | 0.08 nM
Cn1nc(O[C@H](c2ccnc(OCC(F)F)c2)C(F)F)c2cc(-c3c[nH]c(=O)[nH]c3=O)nnc21 [Example 11B, 5-[3-[(1R)-1-[2-(2,2-difluoroethoxy)-4-pyridyl]-2,2-difluoro-ethoxy]-1-methyl-pyrazolo[3,4-c]pyridazin-5-yl]-1H-pyrimidine-2,4-dione] | 0.05 nM | 0.72 nM | 0.24 nM | 0.29 nM
Cn1nc(O[C@H](c2ccnc(OCC(F)(F)F)c2)C(F)F)c2cc(-c3n[nH]c(=O)[nH]c3=O)nnc21 [Example 12, 6-[3-[(1R)-2,2-difluoro-1-[2-(2,2,2-trifluoroethoxy)-4-pyridyl]ethoxy]-1-methyl-pyrazolo[3,4-c]pyridazin-5-yl]-2H-1,2,4-triazine-3,5-dione] | 0.02 nM | 0.67 nM | 0.15 nM | 0.12 nM
COCCOc1cc([C@@H](Oc2nn(C)c3nnc(-c4c[nH]c(=O)[nH]c4=O)cc23)C(F)F)ccn1 [Example 28, 5-[3-[(1R)-2,2-difluoro-1-[2-(2-methoxyethoxy)-4-pyridyl]ethoxy]-1-methyl-pyrazolo[3,4-c]pyridazin-5-yl]-1H-pyrimidine-2,4-dione] | 0.05 nM | 0.63 nM | 0.33 nM | 0.56 nM
O=c1[nH]cc(-c2cc(N3C[C@H](Oc4ncc(C(F)(F)F)cn4)C(F)(F)C3)c3nccn3n2)c(=O)[nH]1 [Example G351, reference compound] |  | 3.53 nM | 8.8 nM | 8.2 nM

Now those with a lower IC50 [4], led by results:

IC50 [1] | IC50 [4] | Compound | EC50 [2] | EC50 [3]
0.07 nM | 0.21 nM | Cn1nc(O[C@H](c2ccnc(COC3CC3)c2)C(F)F)c2cc(-c3c[nH]c(=O)[nH]c3=O)nnc21 [Example 2, 5-[3-[(1R)-1-[2-(cyclopropoxymethyl)-4-pyridyl]-2,2-difluoro-ethoxy]-1-methyl-pyrazolo[3,4-c]pyridazin-5-yl]-1H-pyrimidine-2,4-dione] | 0.18 nM | 0.17 nM
0.07 nM | 0.49 nM | Cn1nc(O[C@H](c2cc(OCC(F)(F)F)ccn2)C(F)F)c2cc(-c3c[nH]c(=O)[nH]c3=O)nnc21 [Example 4, 5-[3-[(1R)-2,2-difluoro-1-[4-(2,2,2-trifluoroethoxy)-2-pyridyl]ethoxy]-1-methyl-pyrazolo[3,4-c]pyridazin-5-yl]-1H-pyrimidine-2,4-dione] | 0.18 nM | 0.22 nM
0.05 nM | 0.44 nM | Cn1nc(O[C@H](c2ccc3cnn(CC(F)(F)F)c3c2)C(F)F)c2cc(-c3c[nH]c(=O)[nH]c3=O)nnc21 [Example 24, 5-[3-[(1R)-2,2-difluoro-1-[1-(2,2,2-trifluoroethyl)indazol-6-yl]ethoxy]-1-methyl-pyrazolo[3,4-c]pyridazin-5-yl]-1H-pyrimidine-2,4-dione] | 0.19 nM | 0.23 nM
0.04 nM | 0.27 nM | C[C@H](Nc1cc([C@@H](Oc2nn(C)c3nnc(-c4c[nH]c(=O)[nH]c4=O)cc23)C(F)F)ccn1)C(F)(F)F [Example 26, 5-[3-[(1R)-2,2-difluoro-1-[2-[[(1S)-2,2,2-trifluoro-1-methyl-ethyl]amino]-4-pyridyl]ethoxy]-1-methyl-pyrazolo[3,4-c]pyridazin-5-yl]-1H-pyrimidine-2,4-dione] | 0.08 nM | 0.09 nM
0.07 nM | 0.42 nM | Cn1nc(O[C@H](c2ccnc(COCC(F)(F)F)c2)C(F)F)c2cc(-c3c[nH]c(=O)[nH]c3=O)nnc21 [Example 34, 5-[3-[(1R)-2,2-difluoro-1-[2-(2,2,2-trifluoroethoxymethyl)-4-pyridyl]ethoxy]-1-methyl-pyrazolo[3,4-c]pyridazin-5-yl]-1H-pyrimidine-2,4-dione] | 0.1 nM | 0.11 nM
0.06 nM | 0.36 nM | Cn1nc(O[C@H](c2ccnc(C3CC(F)(F)C3)c2)C(F)F)c2cc(-c3c[nH]c(=O)[nH]c3=O)nnc21 [Example 38, 5-[3-[(1R)-1-[2-(3,3-difluorocyclobutyl)-4-pyridyl]-2,2-difluoro-ethoxy]-1-methyl-pyrazolo[3,4-c]pyridazin-5-yl]-1H-pyrimidine-2,4-dione] | 0.06 nM | 0.07 nM
